Among the test systems are COLO 205 colon; NCI-H522 lung; OVCAR-3 ovarian; OVCAR-4 ovarian; SF-268 CNS; SK-MEL-2 melanoma; SK-MEL-5 melanoma; SK-OV-3 ovarian; TK-10 renal.
Assay in all cases: NCI-60 cell line screen, 48 h

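All cell lines were grown in 96-well plates and treated with compound for 48 hours. Abbreviation: GI50, concentration required for 50% inhibition of growth. TGI: concentration producing complete growth inhibition.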

As to `O=C1c2ccccc2CC1C1(O)C(=O)Nc2ccccc21` (configuration not stated), the TGI with COLO 205 colon, with NCI-H522 lung, with OVCAR-3 ovarian, with OVCAR-4 ovarian, in the assay on SF-268 CNS and with SK-MEL-2 melanoma was more than 100 µM in each case. Besides, the TGI in the assay on SK-MEL-5 melanoma, with SK-OV-3 ovarian and in the assay with TK-10 renal was more than 100 µM each time.

On to `N#Cc1cc([N+](=O)[O-])ccc1NC(=O)/C(=N/N)C(C(=O)c1ccc(Cl)c(Cl)c1)C1OC(=O)c2ccccc21` (configuration not stated), for which the TGI in the assay with COLO 205 colon, with NCI-H522 lung, in the assay with OVCAR-3 ovarian, in the assay with OVCAR-4 ovarian, with SF-268 CNS and in the assay on SK-MEL-2 melanoma was more than 100 µM each time. Moreover, the TGI in the assay on SK-MEL-5 melanoma and in the assay on SK-OV-3 ovarian was more than 100 µM each time.

`COc1cc(C)c(O)c(C(=O)O)c1`: the TGI with COLO 205 colon, in the assay with NCI-H522 lung, in the assay with OVCAR-3 ovarian, in the assay with OVCAR-4 ovarian, in the assay on SF-268 CNS and with SK-MEL-2 melanoma was more than 100 µM throughout. Besides, the TGI with SK-MEL-5 melanoma, in the assay with SK-OV-3 ovarian and in the assay with TK-10 renal was more than 100 µM each time.

On to `CCOC(=O)c1nc(-c2ccccc2)oc1OCC`, for which the TGI in the assay with COLO 205 colon, in the assay on NCI-H522 lung, in the assay on OVCAR-3 ovarian, in the assay with OVCAR-4 ovarian, in the assay with SF-268 CNS and in the assay on SK-MEL-5 melanoma was more than 100 µM in each case. For the same compound, the TGI with SK-OV-3 ovarian and with TK-10 renal was more than 100 µM throughout.

With `Cc1ccc(Sc2ccc(C)cc2[N+](=O)[O-])c([N+](=O)[O-])c1`, the TGI with COLO 205 colon, in the assay with NCI-H522 lung, in the assay on OVCAR-3 ovarian, in the assay on OVCAR-4 ovarian, in the assay on SF-268 CNS and in the assay with SK-MEL-2 melanoma was more than 100 µM throughout. The TGI with SK-MEL-5 melanoma, in the assay on SK-OV-3 ovarian and in the assay on TK-10 renal was more than 100 µM throughout.

Take `CCOC(=O)C1=C(Nc2cccc3ccccc23)OC/C1=N\NC(=O)c1ccccc1O`: the TGI in the assay with COLO 205 colon was 29.3 µM; with NCI-H522 lung, 24.8 µM; with OVCAR-3 ovarian, 60 µM; in the assay on OVCAR-4 ovarian, more than 59.1 µM; with SF-268 CNS it was more than 100 µM; in the assay with SK-MEL-2 melanoma it was more than 100 µM. The results for the TGI with SK-MEL-5 melanoma, in the assay with SK-OV-3 ovarian and with TK-10 renal were 37.4 µM, more than 100 µM and more than 100 µM, respectively.

Consider `COc1cccc2nc3cc(C)c(C)cc3nc12`, for which the TGI with COLO 205 colon, with NCI-H522 lung, in the assay with OVCAR-3 ovarian, with OVCAR-4 ovarian, with SF-268 CNS and in the assay with SK-MEL-2 melanoma was more than 100 µM each time. The TGI in the assay on SK-MEL-5 melanoma, in the assay with SK-OV-3 ovarian and with TK-10 renal was more than 100 µM in each case.

Turning to `COC(=O)C1=C(O)c2cc3c(cc2[C@H](c2cc(OC)c(OC)c(OC)c2)C1C(=O)OC)OCO3` (some centres not stated), the TGI in the assay on COLO 205 colon is 45.7 µM; with OVCAR-3 ovarian, 92.4 µM; in the assay with OVCAR-4 ovarian it was 83 µM; in the assay on SF-268 CNS, more than 100 µM; in the assay on SK-MEL-5 melanoma, more than 100 µM; in the assay with SK-OV-3 ovarian, more than 100 µM. This compound also displayed a TGI in the assay on TK-10 renal of 89.5 µM.

Take `CC(C)C12C=CC(C)(CC1)n1c(=O)c3cc4ccccc4cc3c(=O)n12` (configuration not stated): the TGI is more than 100 µM with COLO 205 colon; 83.7 µM with NCI-H522 lung; more than 100 µM in the assay on OVCAR-3 ovarian; more than 100 µM in the assay on OVCAR-4 ovarian; more than 100 µM with SF-268 CNS; more than 100 µM with SK-MEL-2 melanoma. The results for the TGI in the assay with SK-MEL-5 melanoma, with SK-OV-3 ovarian and with TK-10 renal were more than 100 µM, more than 100 µM and 94 µM, respectively.

On to `COC(=O)C1=C(C(=O)OC)SC(=C(N=Nc2ccccc2)c2ccccc2)S1`, for which the TGI with COLO 205 colon, in the assay on NCI-H522 lung, in the assay with OVCAR-3 ovarian, with OVCAR-4 ovarian, with SF-268 CNS and with SK-MEL-2 melanoma was more than 100 µM in each case. Further, the TGI with SK-MEL-5 melanoma, with SK-OV-3 ovarian and in the assay with TK-10 renal was more than 100 µM each time.

Take `COC(=O)c1cc(-c2cccn2C)c2c(c1C(=O)OC)c1ccccc1n2C`: the TGI in the assay with COLO 205 colon is more than 100 µM; with NCI-H522 lung, 80.9 µM; in the assay with OVCAR-3 ovarian, more than 100 µM; with OVCAR-4 ovarian, more than 100 µM; with SK-MEL-2 melanoma, more than 100 µM; with SK-MEL-5 melanoma, more than 100 µM. Also, the TGI in the assay on SK-OV-3 ovarian and in the assay with TK-10 renal was more than 100 µM throughout.

Consider `O=C(Nc1nc(=S)c2c(ncn2CCO)[nH]1)c1ccccc1`, for which the TGI in the assay with COLO 205 colon, in the assay on NCI-H522 lung, in the assay on OVCAR-3 ovarian, in the assay on OVCAR-4 ovarian, in the assay with SF-268 CNS and with SK-MEL-2 melanoma was more than 100 µM throughout. In addition, the TGI with SK-MEL-5 melanoma, in the assay with SK-OV-3 ovarian and with TK-10 renal was more than 100 µM each time.

As to `O=c1[nH]c(-c2ccc(-c3nc4cc([N+](=O)[O-])ccc4c(=O)[nH]3)cc2)nc2cc([N+](=O)[O-])ccc12`, the TGI with COLO 205 colon, with NCI-H522 lung, with OVCAR-3 ovarian, with OVCAR-4 ovarian, in the assay with SK-MEL-2 melanoma and in the assay with SK-MEL-5 melanoma was more than 100 µM in each case. The TGI with SK-OV-3 ovarian and with TK-10 renal was more than 100 µM throughout.

In the case of `C=CC1C(OC2OC(CO)C(O)C(O)C2O)OC=C(C(=O)OC)C1CC=O` (configuration not stated), the TGI in the assay with COLO 205 colon, in the assay with OVCAR-3 ovarian, in the assay with OVCAR-4 ovarian, with SF-268 CNS, with SK-MEL-2 melanoma and with SK-MEL-5 melanoma was more than 100 µM each time. This compound also came in with a TGI in the assay with SK-OV-3 ovarian of more than 100 µM.

Turning to `COc1cc(/C=C/C(=O)c2sc(NNC(C)=O)nc2C)ccc1O`, the TGI in the assay on COLO 205 colon, in the assay with NCI-H522 lung, in the assay with OVCAR-3 ovarian, in the assay on SF-268 CNS, with SK-MEL-2 melanoma and in the assay on SK-MEL-5 melanoma was more than 100 µM in each case. The TGI with SK-OV-3 ovarian and in the assay with TK-10 renal was more than 100 µM each time.

In the case of `C=C1CCc2occ(C)c2C2C1C1=C(CC(C)C1=O)C1OC12C` (configuration not stated), the TGI with COLO 205 colon, in the assay with NCI-H522 lung, with OVCAR-3 ovarian, with OVCAR-4 ovarian, with SF-268 CNS and in the assay on SK-MEL-2 melanoma was more than 100 µM each time. Further, the TGI in the assay with SK-MEL-5 melanoma, in the assay with SK-OV-3 ovarian and in the assay with TK-10 renal was more than 100 µM throughout.

In the case of `C=CCNC(=O)NCCCC(NC(C)=O)C(=O)NCc1ccccc1` (configuration not stated), the TGI with COLO 205 colon, in the assay with NCI-H522 lung, in the assay with OVCAR-3 ovarian, in the assay on OVCAR-4 ovarian, in the assay on SF-268 CNS and in the assay on SK-MEL-2 melanoma was more than 100 µM throughout. The TGI with SK-MEL-5 melanoma, with SK-OV-3 ovarian and in the assay on TK-10 renal was more than 100 µM throughout.

Take `C1CCOC2(CCC3(CC2)OCCCCO3)OC1`: the TGI with COLO 205 colon, in the assay on NCI-H522 lung, in the assay with OVCAR-4 ovarian, in the assay on SF-268 CNS, with SK-MEL-2 melanoma and in the assay on SK-MEL-5 melanoma was more than 100 µM throughout. The TGI in the assay with SK-OV-3 ovarian and in the assay on TK-10 renal was more than 100 µM in each case.

Consider `CC(=O)NC1CC2Oc3ccc(C)cc3C(C)(O2)C1O` (configuration not stated), for which the TGI in the assay on COLO 205 colon, with NCI-H522 lung, in the assay on OVCAR-3 ovarian, in the assay with SK-MEL-2 melanoma, in the assay on SK-OV-3 ovarian and with TK-10 renal was more than 100 µM in each case.

On to `C=CCC(OCCOCC)c1cc(OCCOCC)ccc1OC` (configuration not stated), for which the TGI in the assay on COLO 205 colon, in the assay on NCI-H522 lung, in the assay with OVCAR-3 ovarian, with OVCAR-4 ovarian, in the assay on SF-268 CNS and in the assay with SK-MEL-2 melanoma was more than 100 µM each time. The TGI in the assay on SK-MEL-5 melanoma, with SK-OV-3 ovarian and with TK-10 renal was more than 100 µM in each case.

Regarding `C/C=C/C=C/CCCCCCCCCCCCCC1(OC)C=CC(CC(=O)OC)OO1` (configuration not stated), the GI50 is 1.76 µM with COLO 205 colon; 1.58 µM in the assay on NCI-H522 lung; 6.7 µM with OVCAR-3 ovarian; 1.15 µM in the assay with OVCAR-4 ovarian; 2.26 µM in the assay with TK-10 renal. Moreover, the TGI with COLO 205 colon is 3.19 µM; with NCI-H522 lung it was 3.09 µM; in the assay on OVCAR-3 ovarian it was 20.6 µM; in the assay on OVCAR-4 ovarian, 2.48 µM; in the assay on SF-268 CNS it was 34 µM; in the assay on SK-MEL-2 melanoma it was 39 µM. In addition, the figures for the TGI with SK-MEL-5 melanoma, in the assay with SK-OV-3 ovarian and with TK-10 renal were 22.6 µM, 33.9 µM and 4.81 µM, respectively.

For the compound `C[C@@H](NC1CCC[C@H]1O)c1ccccc1` (some centres not stated), the TGI in the assay with COLO 205 colon, in the assay on OVCAR-3 ovarian, with OVCAR-4 ovarian, in the assay with SK-MEL-2 melanoma, with SK-MEL-5 melanoma and in the assay on SK-OV-3 ovarian was more than 100 µM in each case. The TGI in the assay with TK-10 renal was more than 100 µM.

As for `O=C1NC2C=CN(Cc3ccccc3)C=C2C(=O)N2CCCC12` (configuration not stated), the TGI in the assay with COLO 205 colon, with NCI-H522 lung, in the assay on OVCAR-3 ovarian, in the assay on OVCAR-4 ovarian, in the assay on SF-268 CNS and in the assay on SK-MEL-2 melanoma was more than 100 µM in each case. Also, the TGI in the assay with SK-MEL-5 melanoma, in the assay on SK-OV-3 ovarian and in the assay with TK-10 renal was more than 100 µM each time.

The record behind these values is PubChem BioAssay (NCI).
